Assay results taken from EP0024616A1, “1-(3'-Acyloxyphenyl)-2-aminoethanols, their acid addition salts, pharmaceutical compositions containing them and process for their preparation” (Klinge Pharma GmbH, priority 1979, dated 1981).
Converted amounts (≈) assume the structure as drawn. Structures can show the parent of a compound that is named as a salt. Where two headings read alike, the source gives them in different places.

Tests used:
Blutdruck = conditions: oral; from the literature (E. Muschöll 1967); cited from earlier work
Blutdruck der Katze = assay: Blood pressure increasing effect after intraduodenal application in anaesthetised cats; format: in vivo, Katzen; conditions: Felis catus, aqueous solution, anaesthetised cat; for change in vivo at 3 mg/kg: 3 mg/kg intraduodenal; for change in vivo at 10 mg/kg: 10 mg/kg intraduodenal; for change in vivo at 30 mg/kg: 30 mg/kg intraduodenal; for change in vivo at 1 mg/kg: 1 mg/kg intraduodenal; for change in vivo at 0.3 mg/kg: 0.3 mg/kg intraduodenal
Protocol: An 2-4 kg schweren, männlichen und weiblichen, narkotisierten Katzen [Chloralose (70 mg/kg) und Urethan 25 proz. (200 mg/kg)i.p.] wurden die Substanzen in wäßriger Lösung intraduodenal appliziert. Der Anstieg des systolischen und des diastolischen Blutdruckes wird in Prozenten des Ausgangswertes angegeben. N bedeutet Anzahl der Versuchstiere pro Versuch.

[1] = Minimum solubility in water; conditions: for Mindestlöslichkeit in Wasser: Tab. 1, minimum solubility (lower bound) of the salts in water; for solubility: water
[2] = read-out: Diastol. Blutdruck (Anstieg)
[3] = read-out: Systol. Blutdruck (Anstieg)

| Compound | change in vivo at 3 mg/kg (Blutdruck der Katze; [2]) | change in vivo at 3 mg/kg (Blutdruck der Katze; [3]) | change in vivo at 10 mg/kg (Blutdruck der Katze; [2]) | change in vivo at 10 mg/kg (Blutdruck der Katze; [3]) | Mindestlöslichkeit in Wasser [1] | change in vivo at 1 mg/kg (Blutdruck der Katze; [2]) | change in vivo at 1 mg/kg (Blutdruck der Katze; [3]) | further results |
| --- | --- | --- | --- | --- | --- | --- | --- | --- |
| NCC(O)c1cccc(O)c1 (racemic) [Norfenefrin, DL-1-(3'-Hydroxyphenyl)-2-aminoethanol, reference compound] | 18 ± 6% | 25 ± 9% | 25 ± 5% | 34 ± 7% | – | – | – | orale Wirksamkeit (Blutdruck): geringe orale Wirksamkeit; change in vivo at 30 mg/kg (Blutdruck der Katze; [2]): 37 ± 9%; change in vivo at 30 mg/kg (Blutdruck der Katze; [3]): 41 ± 7% |
| CC(=O)Oc1cccc(C(O)CN)c1.Cl (centres unmarked) [Verbindung 1, 1-(3'-Acetoxyphenyl)-2-aminoethanol-hydrochlorid] | 29 ± 6% | 35 ± 8% | 48 ± 8% | 59 ± 6% | 50% | 20 ± 10% | 27 ± 10% | – |
| CCC(=O)Oc1cccc(C(O)CN)c1 (centres unmarked) [Verbindung 2] | – | – | – | – | 50% | – | – | – |
| CCCC(=O)Oc1cccc(C(O)CN)c1 (centres unmarked) [Verbindung 3] | – | – | – | – | 50% | – | – | – |
| CC(C)C(=O)Oc1cccc(C(O)CN)c1 (centres unmarked) [Verbindung 4] | – | – | – | – | 50% | – | – | – |
| CCCCC(=O)Oc1cccc(C(O)CN)c1 (centres unmarked) [Verbindung 5] | 29 ± 8% | 42 ± 10% | – | – | 50% | 31 ± 8% | 33 ± 7% | change in vivo at 0.3 mg/kg (Blutdruck der Katze; [2]): 19 ± 11%; change in vivo at 0.3 mg/kg (Blutdruck der Katze; [3]): 20 ± 10% |
| CC(C)CC(=O)Oc1cccc(C(O)CN)c1 (centres unmarked) [Verbindung 6] | – | – | – | – | 50% | – | – | – |
| CC(C)(C)C(=O)Oc1cccc(C(O)CN)c1.Cl (centres unmarked) [Verbindung 7, 1-(3'-Pivaloyloxyphenyl)-2-aminoethanol-hydrochlorid] | 29 ± 5% | 37 ± 6% | 74 ± 13% | 79 ± 8% | 50% | 17 ± 6% | 17 ± 7% | – |
| CCCCCC(=O)Oc1cccc(C(O)CN)c1 (centres unmarked) [Verbindung 8] | – | – | – | – | 50% | – | – | – |
| CC(C)CCC(=O)Oc1cccc(C(O)CN)c1 (centres unmarked) [Verbindung 9] | – | – | – | – | 50% | – | – | – |
| CCC(CC)C(=O)Oc1cccc(C(O)CN)c1 (centres unmarked) [Verbindung 10] | 48 ± 11% | 48 ± 11% | 89 ± 14% | 85 ± 11% | 50% | 19 ± 3% | 25 ± 5% | – |
| CC(C)(C)CC(=O)Oc1cccc(C(O)CN)c1 (centres unmarked) [Verbindung 11] | – | – | – | – | 50% | – | – | – |
| CCCCCCC(=O)Oc1cccc(C(O)CN)c1.Cl (centres unmarked) [Verbindung 12, 1-(3'-Heptanoyloxyphenyl)-2-aminoethanol-hydrochlorid] | 65 ± 17% | 70 ± 14% | 51 ± 11% | 61 ± 10% | 50% | 17 ± 7% | 21 ± 8% | – |
| CCCC(CC)(CC)C(=O)Oc1cccc(C(O)CN)c1 (centres unmarked) [Verbindung 13] | – | – | – | – | 50% | – | – | – |
| CCCCCCCCCCCC(=O)Oc1cccc(C(O)CN)c1 (centres unmarked) [Verbindung 14] | 25 ± 8% | 39 ± 9% | 90 ± 25% | 87 ± 15% | – | 16 ± 4% | 23 ± 6% | solubility [1]: 150 mg/mL (≈ 447 mM) |
| NCC(O)c1cccc(OC(=O)Cc2ccccc2)c1 (centres unmarked) [Verbindung 15] | 36 ± 11% | 50 ± 11% | 81 ± 15% | 88 ± 15% | 50% | 20 ± 4% | 24 ± 3% | – |
| CC(C(=O)Oc1cccc(C(O)CN)c1)c1ccccc1 (centres unmarked) [Verbindung 16] | 31 ± 8% | 38 ± 12% | 55 ± 13% | 63 ± 9% | 50% | 10 ± 3% | 20 ± 7% | – |
| CCC(C(=O)Oc1cccc(C(O)CN)c1)c1ccccc1 (centres unmarked) [Verbindung 17] | 31 ± 6% | 42 ± 9% | 38 ± 6% | 47 ± 10% | – | 25 ± 7% | 29 ± 7% | solubility [1]: 200 mg/mL (≈ 668 mM) |
| NCC(O)c1cccc(OC(=O)c2ccccc2)c1 (centres unmarked) [Verbindung 18] | – | – | – | – | 50% | – | – | – |
| Cc1ccccc1C(=O)Oc1cccc(C(O)CN)c1 (centres unmarked) [Verbindung 19] | 21 ± 6% | 26 ± 7% | 32 ± 11% | 37 ± 7% | 50% | 15 ± 7% | 17 ± 5% | – |
| Cc1ccc(C(=O)Oc2cccc(C(O)CN)c2)cc1 (centres unmarked) [Verbindung 20, 1-[3'-(4'-Methylbenzoyloxy)phenyl]-2-aminoethanol-hydrochlorid] | 100 ± 24% | 122 ± 25% | – | – | 50% | 26 ± 6% | 28 ± 6% | change in vivo at 0.3 mg/kg (Blutdruck der Katze; [2]): 17 ± 10%; change in vivo at 0.3 mg/kg (Blutdruck der Katze; [3]): 20 ± 10% |
| CC(=O)NCC(O)c1cccc(O)c1 (centres unmarked) [Verbindung 21, reference compound] | – | – | – | – | – | – | – | solubility [1]: 100 mg/mL (≈ 512 mM) |
| CC(=O)NCC(OC(C)=O)c1cccc(O)c1 (centres unmarked) [Verbindung 22, reference compound] | – | – | – | – | – | – | – | solubility [1]: 12 mg/mL (≈ 50.6 mM) |
| CC(C)(C)C(=O)NCC(O)c1cccc(O)c1 (centres unmarked) [Verbindung 23, reference compound] | – | – | – | – | – | – | – | solubility [1]: 10 mg/mL (≈ 42.1 mM) |
| CC(C)(C)C(=O)NCC(OC(=O)C(C)(C)C)c1cccc(O)c1 (centres unmarked) [Verbindung 24, reference compound] | – | – | – | – | – | – | – | solubility [1]: 0.1 mg/mL (≈ 0.311 mM) |
| CC(C)(C)C(=O)NCC(OC(=O)C(C)(C)C)c1cccc(OC(=O)C(C)(C)C)c1 (centres unmarked) [Verbindung 25, reference compound] | – | – | – | – | – | – | – | solubility [1]: 0.1 mg/mL (≈ 0.247 mM) |
